The structures appear in SMILES notation.

The target in this assay is CDK2 (human) (UniProt P24941). In words: Enzyme Assay.
The compound `CCCCCNc1nc(N[C@H]2CC[C@H](N)CC2)nc2c1ncn2C1CCCC1` displayed an IC50 of 0.053 µM. The compound `CCNc1nc(N[C@H]2CC[C@H](N)CC2)nc2c1ncn2C1CCCC1` returned an IC50 of 0.013 µM.

As for `N[C@H]1CC[C@H](Nc2nc(NCCCO)c3ncn(C4CCCC4)c3n2)CC1`, the IC50 worked out at 0.018 µM. Compound `N[C@H]1CC[C@H](Nc2nc(NCCCCc3ccccc3)c3ncn(C4CCCC4)c3n2)CC1` registered an IC50 of 0.059 µM. Next, `CC(C)n1cnc2c(NCCCC(=O)c3ncc[nH]3)nc(N[C@H]3CC[C@H](N)CC3)nc21`: 0.84 µM; `N[C@H]1CC[C@H](Nc2nc(NCCc3ccncc3)c3ncn(C4CCCC4)c3n2)CC1`: 0.069 µM. As to `N[C@H]1CC[C@H](Nc2nc(NCc3cccs3)c3ncn(C4CCCC4)c3n2)CC1`, the IC50 came to 0.056 µM.

Turning to `CC(C)n1cnc2c(NCC3CC3)nc(N[C@H]3CC[C@H](N)CC3)nc21`, the IC50 worked out at 0.141 µM. Turning to `N[C@H]1CC[C@H](Nc2nc(NNCC(F)(F)F)c3ncn(C4CCCC4)c3n2)CC1`, the IC50 worked out at 0.058 µM. For `CCCCCCCCNc1nc(N[C@H]2CC[C@H](N)CC2)nc2c1ncn2C1CCCC1`, the IC50 is 0.36 µM. With `CCCCNc1nc(N[C@H]2CC[C@H](N)CC2)nc2c1ncn2C1CCCC1`, the half-maximal inhibitory concentration (IC50) came to 0.023 µM. As to `N[C@H]1CC[C@H](Nc2nc(NCCCN3CCOCC3)c3ncn(C4CCCC4)c3n2)CC1`, the IC50 amounted to 0.116 µM.

These data come from the Kinase Knowledgebase extract (Sharma et al. 2016).
